# Experimental data from US12185723B2, “Herbicidally active 3-phenylisoxazoline-5-carboxamides of s-containing cyclopentenylcarboxylic esters” (Bayer Aktiengesellschaft, priority 2019, dated 2025).
# What was measured:
# Type in all cases: in vivo
# Pharbitis purpurea = assay: Post-emergence herbicidal action against PHBPU
# Description: (§1) Post-Emergence Herbicidal Action Against Harmful Plants and Crop Plant Compatibility Seeds of monocotyledonous and dicotyledonous weeds and crop plants are placed in sandy loam in plastic or wood-fibre pots, covered with soil and cultivated in a greenhouse under controlled growth conditions. 2 to 3 weeks after sowing, the test plants are treated at the one-leaf stage. The compounds of the invention, formulated in the form of wettable powders (WP) or as emulsion concentrates (EC), are then sprayed onto the green parts of the plants as aqueous suspension or emulsion with addition of 0.5% additive at a water application rate of 600 l/ha (converted). After the test plants have been kept in the greenhouse under optimum growth conditions for about 3 weeks, the activity of the preparations is rated visually in comparison to untreated controls. For example, 100% activity=the plants have died, 0% activity=like control plants. [table]
# Avena fatua = assay: Post-emergence herbicidal action against AVEFA; conditions: visual rating about 3 weeks after treatment
# Description: as §1
# Lolium rigidum = assay: Post-emergence herbicidal action against LOLRI; conditions: visual rating about 3 weeks after treatment
# Description: as §1
# Alopecurus myosuroides = assay: Post-emergence herbicidal action against ALOMY; conditions: visual rating about 3 weeks after treatment
# Description: as §1
# Amaranthus retroflexus = assay: Post-emergence herbicidal action against AMARE
# Description: as §1
# Abutilon theophrasti = assay: Post-emergence herbicidal action against ABUTH; conditions: 20 g a.i./ha, visual rating about 3 weeks after treatment
# Description: as §1
# Matricaria inodora = assay: Post-emergence herbicidal action against MATIN; conditions: 20 g a.i./ha
# Description: as §1
# Echinochloa crus-galli = assay: Post-emergence herbicidal action against ECHCG; conditions: visual rating about 3 weeks after treatment
# Description: as §1
# Veronica persica = assay: Post-emergence herbicidal action against VERPE
# Description: as §1
# Setaria viridis = assay: Post-emergence herbicidal action against SETVI; conditions: visual rating about 3 weeks after treatment
# Description: as §1
# DIGSA = assay: Post-emergence herbicidal action against DIGSA; conditions: visual rating about 3 weeks after treatment
# Description: as §1, with “plants.” for “plants. [table]”
# Polygonum convolvulus = assay: Post-emergence herbicidal action against POLCO
# Description: as §1
# Hordeum murinum = assay: Post-emergence herbicidal action against HORMU
# Description: as §1
# Viola tricolor = assay: Post-emergence herbicidal action against VIOTR
# Description: as §1
# Stellaria media = assay: Post-emergence herbicidal action against STEME
# Description: as §1
# [1] = 80 g a.i./ha, visual rating about 3 weeks after treatment
SMILES,Herbicidal action against [%] AVEFA (Avena fatua; 20 g a.i./ha),Herbicidal action against [%] LOLRI (Lolium rigidum; 20 g a.i./ha),Herbicidal action against [%] ALOMY (Alopecurus myosuroides; 20 g a.i./ha),Herbicidal action against [%] AMARE (Amaranthus retroflexus; 20 g a.i./ha),Herbicidal action against [%] VERPE (Veronica persica; 20 g a.i./ha),Herbicidal action against [%] SETVI (Setaria viridis; 20 g a.i./ha),Herbicidal action against [%] DIGSA (DIGSA; 20 g a.i./ha),Herbicidal action against [%] POLCO (Polygonum convolvulus; 20 g a.i./ha),Herbicidal action against [%] HORMU (Hordeum murinum; 80 g a.i./ha),Herbicidal action against [%] PHBPU (Pharbitis purpurea; 80 g a.i./ha),Herbicidal action against [%] AVEFA (Avena fatua; 80 g a.i./ha),Herbicidal action against [%] VIOTR (Viola tricolor; 20 g a.i./ha),Herbicidal action against [%] LOLRI (Lolium rigidum; 80 g a.i./ha),Herbicidal action against [%] ALOMY (Alopecurus myosuroides; 80 g a.i./ha),Herbicidal action against [%] STEME (Stellaria media; 20 g a.i./ha),Herbicidal action against [%] STEME (Stellaria media; 80 g a.i./ha),Herbicidal action against [%] ECHCG (Echinochloa crus-galli; 80 g a.i./ha),Herbicidal action against [%] VERPE (Veronica persica; 80 g a.i./ha),Herbicidal action against [%] SETVI (Setaria viridis; 80 g a.i./ha),Herbicidal action against [%] DIGSA (DIGSA; 80 g a.i./ha),further results
C=CCSCCOC(=O)C1C=CC(NC(=O)C2(C)CC(c3cc(F)cc(F)c3)=NO2)C1 (centres unmarked) [Example I-11],90%,100%,100%,90%,90%,90%,90%,90%,,,,,,,,,,,,,Herbicidal action against [%] PHBPU (Pharbitis purpurea; 20 g a.i./ha): 80%; Herbicidal action against [%] ABUTH (Abutilon theophrasti): 90%; Herbicidal action against [%] MATIN (Matricaria inodora): 80%; Herbicidal action against [%] ECHCG (Echinochloa crus-galli; 20 g a.i./ha): 90%
CC1(C(=O)NC2C=CC(C(=O)OCCSCc3ccccc3)C2)CC(c2cc(F)cc(F)c2)=NO1 (centres unmarked) [Example I-07],90%,90%,90%,90%,90%,90%,90%,90%,,,,,,,,,,,,,Herbicidal action against [%] PHBPU (Pharbitis purpurea; 20 g a.i./ha): 80%; Herbicidal action against [%] ABUTH (Abutilon theophrasti): 80%; Herbicidal action against [%] MATIN (Matricaria inodora): 80%; Herbicidal action against [%] ECHCG (Echinochloa crus-galli; 20 g a.i./ha): 90%
CSCCOC(=O)C1C=CC(NC(=O)C2(C(F)(F)F)CC(c3cc(F)cc(C#N)c3)=NO2)C1 (mixture of isomers) [Example I-37],90%,90%,90%,80%,80%,80%,80%,80%,80%,80%,90%,80%,90%,90%,80%,80%,80%,90%,80%,90%,Herbicidal action against [%] HORMU (Hordeum murinum; 20 g a.i./ha): 80%; Herbicidal action against [%] AMARE (Amaranthus retroflexus; [1]): 80%; Herbicidal action against [%] POLCO (Polygonum convolvulus; 80 g a.i./ha): 80%
CSCCOC(=O)C1C=CC(NC(=O)C2(C)CC(c3cc(C#N)cc(C#N)c3)=NO2)C1 (mixture of isomers) [Example I-46],90%,90%,90%,,80%,90%,90%,80%,90%,80%,90%,90%,90%,90%,90%,90%,80%,90%,90%,90%,Herbicidal action against [%] HORMU (Hordeum murinum; 20 g a.i./ha): 90%; Herbicidal action against [%] VIOTR (Viola tricolor; 80 g a.i./ha): 80%; Herbicidal action against [%] AMARE (Amaranthus retroflexus; [1]): 90%; Herbicidal action against [%] POLCO (Polygonum convolvulus; 80 g a.i./ha): 90%
C=CC1(C(=O)NC2C=CC(C(=O)OCCSC)C2)CC(c2ccccc2)=NO1 (mixture of isomers) [Example I-48],,80%,,,80%,80%,80%,,80%,80%,90%,90%,90%,100%,90%,90%,80%,90%,80%,90%,
